Laboratory results reported in US9469615B2, “Quinoxalines and AZA-quinoxalines as CRTH2 receptor modulators” (Merck Sharp & Dohme Corp., priority 2010, dated 2016).

Molecular target: T1, hCRTH2 (Homo sapiens, UniProt Q9Y5Y4)
T1 construct: expressed in transfected cells; host or cells: HEK (human embryonic kidney) cells expressing hCRTH2; membrane preparation
T1 sequence (Q9Y5Y4 1-395): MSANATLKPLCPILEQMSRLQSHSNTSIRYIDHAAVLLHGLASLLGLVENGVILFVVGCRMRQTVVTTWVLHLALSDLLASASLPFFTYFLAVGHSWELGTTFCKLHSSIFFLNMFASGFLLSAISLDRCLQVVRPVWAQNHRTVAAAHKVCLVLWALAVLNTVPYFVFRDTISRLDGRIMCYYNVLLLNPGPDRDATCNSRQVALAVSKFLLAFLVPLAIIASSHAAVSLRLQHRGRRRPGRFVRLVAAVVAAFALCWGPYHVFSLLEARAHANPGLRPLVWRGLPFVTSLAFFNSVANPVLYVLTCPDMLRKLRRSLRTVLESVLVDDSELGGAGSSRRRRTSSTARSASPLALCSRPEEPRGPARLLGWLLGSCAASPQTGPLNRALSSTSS
Assay: Radioligand binding assay ([3H]PGD2 competition, HEK-hCRTH2 membranes)
Conditions: [3H]PGD2 competition, Table B
Procedure, shortened: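 HEK-hCRTH2 membranes, 8-20 μg; [3H]PGD2 3.0 nM; 50 mM Tris-HCl pH 7.4/1 mM EDTA/2 mM MnCl2; DMSO 1%; 60 min RT; NSB 10 μM PGD2; filtration, scintillation counting.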

Cc1ccc(N2CCN(C(=O)c3ccc4nc(-c5ccc(Cl)cc5)c(CCCCC(=O)O)nc4c3)CC2)cc1C [compound 621, 5-(3-(4-chlorophenyl)-7-(4-(3,4-dimethylphenyl)piperazine-1-carbonyl)quinoxalin-2-yl)pentanoic acid] and Cc1ccc(C)c(N2CCN(C(=O)c3ccc4nc(-c5ccc(Cl)cc5)c(CCCCC(=O)O)nc4c3)CC2)c1 [compound 629, 5-(3-(4-chlorophenyl)-7-(4-(2,5-dimethylphenyl)piperazine-l-carbonyl)quinoxalin-2-yl)pentanoic acid] fall in the same range of Ki: 0.1 to 2 nM for the first, 0.1 to 2 nM for the second.

COc1ccc(N2CCN(C(=O)c3ccc4nc(-c5ccc(Cl)cc5)c(CCCCC(=O)O)nc4c3)CC2)cc1 [compound 622, 5-(3-(4-chlorophenyl)-7-(4-(4-methoxyphenyl)piperazine-1-carbonyl)quinoxalin-2-yl)pentanoic acid] and N#Cc1ccc(N2CCN(C(=O)c3ccc4nc(-c5ccc(Cl)cc5)c(CCCCC(=O)O)nc4c3)CC2)cc1 [compound 623, 5-(3-(4-chlorophenyl)-7-(4-(4-cyanophenyl)piperazine-1-carbonyl)quinoxalin-2-yl)pentanoic acid] fall in the same range of Ki: 2.1 to 20 nM for the first, 2.1 to 20 nM for the second.

O=C(O)CCCCc1nc2cc(C(=O)N3CCN(c4ccc(Cl)c(Cl)c4)CC3)ccc2nc1-c1ccc(Cl)cc1 [compound 624, 5-(3-(4-chlorophenyl)-7-(4-(3,4-dichlorophenyl)piperazine-1-carbonyl)quinoxalin-2-yl)pentanoic acid] and Cc1cccc(N2CCN(C(=O)c3ccc4nc(-c5ccc(Cl)cc5)c(CCCCC(=O)O)nc4c3)CC2)c1C [compound 627, 5-(3-(4-chlorophenyl)-7-(4-(2,3-dimethylphenyl)piperazine-1-carbonyl)quinoxalin-2-yl)pentanoic acid] fall in the same range of Ki: 0.1 to 2 nM for the first, 0.1 to 2 nM for the second.

CN(Cc1cccnc1)C(=O)c1ccc2nc(-c3ccc(Cl)cc3)c(CCCCC(=O)O)nc2c1 [compound 625, 5-(3-(4-chlorophenyl)-7-(methyl(pyridin-3-ylmethyl)carbamoyl)quinoxalin-2-yl)pentanoic acid] and O=C(O)CCCCc1nc2cc(C(=O)N3C[C@@H]4C[C@H]3CN4Cc3ccccc3)ccc2nc1-c1ccc(Cl)cc1 [compound 630] fall in the same range of Ki: 2.1 to 20 nM for the first, 2.1 to 20 nM for the second.

First: O=C(O)CCCCc1nc2cc(C(=O)N3CCC(n4c(=O)[nH]c5ccccc54)CC3)ccc2nc1-c1ccc(Cl)cc1 [compound 626, 5-(3-(4-chlorophenyl)-7-(4-(2-oxo-2,3-dihydro-1H-benzo[d]imidazol-1-yl)piperidine-1-carbonyl)quinoxalin-2-yl)pentanoic acid]
Second: COc1ccccc1C1CCN(C(=O)c2ccc3nc(-c4ccc(Cl)cc4)c(CCCCC(=O)O)nc3c2)CC1 [compound 632, 5-(3-(4-chlorophenyl)-7-(4-(2-methoxyphenyl)piperidine-1-carbonyl)quinoxalin-2-yl)pentanoic acid]
The Ki of the first is higher: 2.1 to 20 nM for the first, 0.1 to 2 nM for the second. The second binds more tightly here.

Cc1cccc(C)c1N1CCN(C(=O)c2ccc3nc(-c4ccc(Cl)cc4)c(CCCCC(=O)O)nc3c2)CC1 [compound 628, 5-(3-(4-chlorophenyl)-7-(4-(2,6-dimethylphenyl)piperazine-1-carbonyl)quinoxalin-2-yl)pentanoic acid] and N#Cc1ccccc1N1CCN(C(=O)c2ccc3nc(-c4ccc(Cl)cc4)c(CCCCC(=O)O)nc3c2)CC1 [compound 631, 5-(3-(4-chlorophenyl)-7-(4-(2-cyanophenyl)piperazine-1-carbonyl)quinoxalin-2-yl)pentanoic acid] fall in the same range of Ki: 0.1 to 2 nM for the first, 0.1 to 2 nM for the second.

First: O=C(O)CCCCc1nc2cc(C(=O)N3CCC4(CC3)OCc3ccccc34)ccc2nc1-c1ccc(Cl)cc1 [compound 633, 5-(3-(4-chlorophenyl)-7-(3H-spiro[isobenzofuran-1,4′-piperidin]-1′-ylcarbonyl)quinoxalin-2-yl)pentanoic acid]
Second: O=C(O)CCCCc1nc2cc(C(=O)N3CCC4(CC3)CCN(c3ccccc3)C4=O)ccc2nc1-c1ccc(Cl)cc1 [compound 634, 5-(3-(4-chlorophenyl)-7-(1-oxo-2-phenyl-2,8-diazaspiro[4.5]decane-8-carbonyl)quinoxalin-2-yl)pentanoic acid]
The Ki of the first is lower: 0.1 to 2 nM for the first, 2.1 to 20 nM for the second. The first binds more tightly here.
